Test results taken from ChEMBL document CHEMBL1201862, “PubChem BioAssay data set” (2004).
“And” between values parts separate entries of the source, which are not always exact repeats. Equal entries are not always repeated.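 Each compound was tested at five concentrations against cells in 96-well plates for 48 hours. At the GI50, growth is halved.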 The source made the active and inactive calls. No stated cut-off is given here; in the data, active = GI50 up to about 1.1 µM and inactive = higher.

How the values were obtained:
Assay in all cases: NCI anticancer screen, dose series, 48 h
786-0 = system: 786-0
A498 = system: A498
A549 = system: A549
ACHN = system: ACHN
BT-549 = system: BT-549
CAKI-1 = system: CAKI-1
CCRF-CEM = system: CCRF-CEM
EKVX = system: EKVX
HCC 2998 = system: HCC 2998
HCT-15 = system: HCT-15
HL-60 = system: HL-60
HOP-92 = system: HOP-92
HT-29 = system: HT-29
Hs-578T = system: Hs-578T
IGROV-1 = system: IGROV-1
K562 = system: K562
KM12 = system: KM12
LOX IMVI = system: LOX IMVI
M14 = system: M14
MCF7 = system: MCF7
MOLT-4 = system: MOLT-4
NCI-H226 = system: NCI-H226
NCI-H23 = system: NCI-H23
NCI-H460 = system: NCI-H460
NCI/ADR-RES = system: NCI/ADR-RES
OVCAR-3 = system: OVCAR-3
OVCAR-4 = system: OVCAR-4
OVCAR-5 = system: OVCAR-5
OVCAR-8 = system: OVCAR-8
PC-3 = system: PC-3
RPMI-8226 = system: RPMI-8226
RXF 393 = system: RXF 393
SF-268 = system: SF-268
SF-539 = system: SF-539
SK-MEL-28 = system: SK-MEL-28
SK-MEL-5 = system: SK-MEL-5
SK-OV-3 = system: SK-OV-3
SN12C = system: SN12C
SNB-19 = system: SNB-19
SNB-75 = system: SNB-75
SR = system: SR
SW-620 = system: SW-620
TK-10 = system: TK-10
U-251 = system: U-251
UACC-62 = system: UACC-62
UO-31 = system: UO-31
COLO 205 = system: COLO 205
DU-145 = system: DU-145
HCT-116 = system: HCT-116
MDA-MB-231 = system: MDA-MB-231
MDA-MB-435 = system: MDA-MB-435
Malme-3M = system: Malme-3M
NCI-H522 = system: NCI-H522
SF-295 = system: SF-295
SK-MEL-2 = system: SK-MEL-2
UACC-257 = system: UACC-257

Cc1cc(Br)c(N2C3=C(CC4=C2CCCC4=O)C(=O)CCC3)c(Br)c1
GI50 (786-0): 96.6 µM (inactive)
GI50 (A498): 94.8 µM (inactive)
GI50 (A549): 39.8 µM (inactive)
GI50 (ACHN): 46.8 µM (inactive)
GI50 (BT-549): 51.3 µM (inactive)
GI50 (CAKI-1): > 100 µM (inactive)
GI50 (CCRF-CEM): 10.3 µM (inactive)
GI50 (EKVX): 31 µM (inactive)
GI50 (HCC 2998): > 100 µM (inactive)
GI50 (HCT-15): 29.1 µM
GI50 (HL-60): 32.7 µM (inactive)
GI50 (HOP-92): 25.6 µM (inactive)
GI50 (HT-29): 42.3 µM (inactive)
GI50 (Hs-578T): > 100 µM (inactive)
GI50 (IGROV-1): > 100 µM (inactive)
GI50 (K562): 13.2 µM (inactive)
GI50 (KM12): 62.5 µM (inactive)
GI50 (LOX IMVI): 23.7 µM (inactive)
GI50 (M14): > 100 µM (inactive)
GI50 (MCF7): 33.3 µM (inactive)
GI50 (MOLT-4): 15.4 µM (inactive)
GI50 (NCI-H226): 72.1 µM (inactive)
GI50 (NCI-H23): 50.9 µM (inactive)
GI50 (NCI-H460): 31.5 µM (inactive)
GI50 (NCI/ADR-RES): 32.1 µM (inactive)
GI50 (OVCAR-3): 42.9 µM (inactive)
GI50 (OVCAR-4): 93.5 µM (inactive)
GI50 (OVCAR-5): > 100 µM (inactive)
GI50 (OVCAR-8): 44.6 µM (inactive)
GI50 (PC-3): 18.6 µM (inactive)
GI50 (RPMI-8226): 27.4 µM (inactive)
GI50 (RXF 393): 25.8 µM (inactive)
GI50 (SF-268): 75.5 µM (inactive)
GI50 (SF-539): > 100 µM (inactive)
GI50 (SK-MEL-28): > 100 µM (inactive)
GI50 (SK-MEL-5): 38.7 µM (inactive)
GI50 (SK-OV-3): > 100 µM (inactive)
GI50 (SN12C): 74.1 µM (inactive)
GI50 (SNB-19): > 100 µM (inactive)
GI50 (SNB-75): 46.1 µM (inactive)
GI50 (SR): 36.6 µM (inactive)
GI50 (SW-620): 31.6 µM (inactive)
GI50 (TK-10): > 100 µM (inactive)
GI50 (U-251): 32.9 µM (inactive)
GI50 (UACC-62): 63.2 µM (inactive)
GI50 (UO-31): 60.5 µM (inactive)

O=P(O)(O)OC1C(OP(=O)(O)O)C(OP(=O)(O)O)C(OP(=O)(O)O)C(OP(=O)(O)O)C1OP(=O)(O)O (configuration not stated)
GI50 (CCRF-CEM): > 995 µM (inactive)
GI50 (EKVX): > 560 µM (inactive)
GI50 (HOP-92): > 923 µM (inactive)
GI50 (OVCAR-4): > 875 µM (inactive)

CN(Cc1cnc2nc(N)nc(N)c2n1)c1ccc(C(=O)NC(CCC(=O)O)C(=O)O)cc1 (configuration not stated)
GI50 (A498): > 100 µM (inactive)
GI50 (A549): 0.0384 µM (active)
GI50 (ACHN): 0.0204 µM (active)
GI50 (BT-549): 4.07 µM (inactive)
GI50 (CAKI-1): < 0.0157 µM (active)
GI50 (COLO 205): 0.705 µM (active)
GI50 (DU-145): 0.0154 µM (active)
GI50 (HCC 2998): 41.5 µM (inactive)
GI50 (HCT-116): < 0.01 µM (active)
GI50 (HCT-15): < 0.01 µM
GI50 (HL-60): < 0.01 µM (active)
GI50 (HOP-92): 25.4 µM (inactive)
GI50 (HT-29): < 0.01 µM (active)
GI50 (IGROV-1): 0.082 µM (active)
GI50 (K562): < 0.01 µM (active)
GI50 (KM12): < 0.0164 µM (active)
GI50 (LOX IMVI): < 0.01 µM (active)
GI50 (M14): 0.117 µM (active)
GI50 (MDA-MB-231): > 100 µM (inactive)
GI50 (MDA-MB-435): < 0.01 µM (active)
GI50 (MOLT-4): 0.0205 µM (active)
GI50 (Malme-3M): 7.29 µM (inactive)
GI50 (NCI-H226): 5.38 µM (inactive)
GI50 (NCI-H23): 0.0792 µM (active)
GI50 (NCI-H460): < 0.01 µM (active)
GI50 (NCI-H522): 0.398 µM (active)
GI50 (NCI/ADR-RES): 0.0249 µM (active)
GI50 (OVCAR-3): 0.111 µM (active)
GI50 (OVCAR-4): > 70.8 µM (inactive)
GI50 (OVCAR-5): > 100 µM (inactive)
GI50 (OVCAR-8): < 0.0448 µM (active)
GI50 (PC-3): 3.81 µM (inactive)
GI50 (RPMI-8226): < 0.0284 µM (active)
GI50 (RXF 393): > 100 µM (inactive)
GI50 (SF-268): < 0.0298 µM (active)
GI50 (SF-295): < 0.0256 µM (active)
GI50 (SF-539): < 0.014 µM (active)
GI50 (SK-MEL-28): 1.25 µM (inactive)
GI50 (SK-MEL-2): > 100 µM (inactive)
GI50 (SK-MEL-5): 0.0661 µM (active)
GI50 (SK-OV-3): 1.24 µM (inactive)
GI50 (SN12C): < 0.011 µM (active)
GI50 (SNB-19): 0.619 µM (active)
GI50 (SNB-75): > 57 µM (inactive)
GI50 (SR): < 0.01 µM (active)
GI50 (SW-620): < 0.01 µM (active)
GI50 (TK-10): 0.869 µM (active)
GI50 (U-251): 0.0916 µM (active)
GI50 (UACC-257): 0.815 µM (active)
GI50 (UACC-62): < 0.0136 µM (active)
GI50 (UO-31): 0.232 µM (active)

COC12C=CC(CC1)C(C)(C)C2O (configuration not stated)
GI50 (SNB-75): 87.5 µM (inactive) and 52.7 µM (inactive)
